Test results published in the NIST ThermoML archive (doi:10.1021/je101144k).
Numbers after ± are expanded uncertainties.

Columns and labels:
[1] = molar heat capacity at constant pressure; wn = mass fraction of the nth substance listed; details: 101 kPa, Liquid, Small sample (50 mg) DSC
[2] = wn = mass fraction of the nth substance listed; details: for surface tension liquid-gas: Maximal bubble pressure; for mass density / viscosity: 101 kPa, Liquid; for mass density: Pycnometric method

N[C@@H](CO)C(=O)[O-].[K+] [potassium L-serinate] + O
Details | mass density, [2] [kg/m3] | molar heat capacity at constant pressure, [1] [J/K/mol] | surface tension liquid-gas, [2] [mN/m] | viscosity, [2] [mPa·s]
298.15 K, w1 = 0.072 | 1034.7 ± 0.9 | – | 73.2 ± 0.6 | 1.121 ± 0.034
298.15 K, w1 = 0.143 | 1068.7 ± 1.1 | – | 74.1 ± 0.6 | 1.372 ± 0.039
298.15 K, w1 = 0.286 | 1137 ± 1.6 | – | 77.9 ± 0.7 | 1.913 ± 0.052
298.15 K, w1 = 0.43 | 1201.2 ± 2.2 | – | 80.4 ± 0.8 | 2.757 ± 0.077
298.15 K, w1 = 0.573 | 1263.5 ± 2.8 | – | 82.2 ± 0.8 | 4.202 ± 0.12
303.15 K, w1 = 0.072 | 1033.1 ± 0.9 | 74.59 ± 1.7 | – | 1.032 ± 0.032
303.15 K, w1 = 0.143 | 1066.7 ± 1.1 | 76.59 ± 1.9 | – | 1.261 ± 0.037
303.15 K, w1 = 0.286 | 1134.4 ± 1.7 | 80.47 ± 1.9 | – | 1.736 ± 0.048
303.15 K, w1 = 0.43 | 1198.8 ± 2.2 | 88.33 ± 2 | – | 2.485 ± 0.069
303.15 K, w1 = 0.573 | 1260.5 ± 2.8 | 98.9 ± 2.2 | – | 3.685 ± 0.1
308.15 K, w1 = 0.072 | – | 75.17 ± 1.7 | – | –
308.15 K, w1 = 0.143 | – | 77.62 ± 1.9 | – | –
308.15 K, w1 = 0.286 | – | 81.19 ± 1.9 | – | –
308.15 K, w1 = 0.43 | – | 88.91 ± 2 | – | –
308.15 K, w1 = 0.573 | – | 99.62 ± 2.2 | – | –
313.15 K, w1 = 0.072 | 1028.8 ± 0.9 | 75.56 ± 1.7 | – | 0.87 ± 0.029
313.15 K, w1 = 0.143 | 1061.9 ± 1.1 | 78.03 ± 1.9 | – | 1.043 ± 0.032
313.15 K, w1 = 0.286 | 1129.1 ± 1.6 | 81.67 ± 1.9 | – | 1.402 ± 0.041
313.15 K, w1 = 0.43 | 1193.1 ± 2.2 | 89.77 ± 2 | – | 1.996 ± 0.057
313.15 K, w1 = 0.573 | 1254.4 ± 2.8 | 100.35 ± 2.5 | – | 2.927 ± 0.084
318.15 K, w1 = 0.072 | – | 76.13 ± 1.7 | – | –
318.15 K, w1 = 0.143 | – | 78.65 ± 1.9 | – | –
318.15 K, w1 = 0.286 | – | 82.15 ± 1.9 | – | –
318.15 K, w1 = 0.43 | – | 90.35 ± 2 | – | –
318.15 K, w1 = 0.573 | – | 101.07 ± 2.5 | – | –
323.15 K, w1 = 0.072 | 1024.6 ± 0.9 | 76.52 ± 1.7 | – | 0.73 ± 0.026
323.15 K, w1 = 0.143 | 1056.9 ± 1.1 | 79.06 ± 1.9 | – | 0.896 ± 0.029
323.15 K, w1 = 0.286 | 1123.8 ± 1.6 | 82.63 ± 1.9 | – | 1.14 ± 0.035
323.15 K, w1 = 0.43 | 1187.5 ± 2.2 | 91.22 ± 2 | – | 1.767 ± 0.052
323.15 K, w1 = 0.573 | 1248.5 ± 2.8 | 101.43 ± 2.5 | – | 2.556 ± 0.073
328.15 K, w1 = 0.072 | – | 76.9 ± 1.7 | – | –
328.15 K, w1 = 0.143 | – | 79.47 ± 1.9 | – | –
328.15 K, w1 = 0.286 | – | 83.35 ± 1.9 | – | –
328.15 K, w1 = 0.43 | – | 91.79 ± 2 | – | –
328.15 K, w1 = 0.573 | – | 102.15 ± 2.5 | – | –
333.15 K, w1 = 0.072 | 1019.1 ± 0.9 | 77.29 ± 1.7 | – | 0.645 ± 0.024
333.15 K, w1 = 0.143 | 1051.5 ± 1.1 | 80.09 ± 1.9 | – | 0.806 ± 0.028
333.15 K, w1 = 0.286 | 1118 ± 1.6 | 83.83 ± 1.9 | – | 0.989 ± 0.032
333.15 K, w1 = 0.43 | 1181.6 ± 2.2 | 92.37 ± 2 | – | 1.56 ± 0.047
333.15 K, w1 = 0.573 | 1242.3 ± 2.8 | 102.51 ± 2.5 | – | 2.278 ± 0.066
338.15 K, w1 = 0.072 | – | 77.67 ± 1.7 | – | –
338.15 K, w1 = 0.143 | – | 80.5 ± 1.9 | – | –
338.15 K, w1 = 0.286 | – | 84.31 ± 1.9 | – | –
338.15 K, w1 = 0.43 | – | 92.95 ± 2 | – | –
338.15 K, w1 = 0.573 | – | 102.87 ± 2.5 | – | –
343.15 K, w1 = 0.072 | 1013.9 ± 1 | 78.06 ± 1.7 | – | 0.564 ± 0.023
343.15 K, w1 = 0.143 | 1046.3 ± 1.1 | 81.12 ± 1.9 | – | 0.671 ± 0.025
343.15 K, w1 = 0.286 | 1112.5 ± 1.6 | 84.79 ± 1.9 | – | 0.855 ± 0.029
343.15 K, w1 = 0.43 | 1175.9 ± 2.2 | 93.24 ± 2 | – | 1.423 ± 0.044
343.15 K, w1 = 0.573 | 1236.3 ± 2.7 | 103.23 ± 2.5 | – | 2.063 ± 0.06
348.18 K, w1 = 0.072 | – | 78.25 ± 1.7 | – | –
348.18 K, w1 = 0.143 | – | 81.53 ± 1.9 | – | –
348.18 K, w1 = 0.286 | – | 85.27 ± 1.9 | – | –
348.18 K, w1 = 0.43 | – | 93.81 ± 2.3 | – | –
348.18 K, w1 = 0.573 | – | 103.23 ± 2.5 | – | –
353.15 K, w1 = 0.072 | 1007.8 ± 1 | 78.44 ± 1.7 | – | 0.494 ± 0.022
353.15 K, w1 = 0.143 | 1039.6 ± 1.1 | 81.74 ± 1.9 | – | 0.564 ± 0.023
353.15 K, w1 = 0.286 | 1106 ± 1.7 | 85.51 ± 1.9 | – | 0.732 ± 0.027
353.15 K, w1 = 0.43 | 1169.6 ± 2.2 | 94.1 ± 2.3 | – | 1.255 ± 0.041
353.15 K, w1 = 0.573 | 1229.6 ± 2.7 | 104.68 ± 2.5 | – | 1.919 ± 0.058
